The target in test [1] is DNA dC->dU-editing enzyme APOBEC-3A (Homo sapiens, UniProt P31941). Kind of test: A3A deaminase inhibition for selectivity – biochemical, dose response (AID 504722). Format: functional.
For a further test, the target named is T1, Hexokinase HKDC1 (Homo sapiens, UniProt Q2TB90).
T1 sequence (Q2TB90 whole entry): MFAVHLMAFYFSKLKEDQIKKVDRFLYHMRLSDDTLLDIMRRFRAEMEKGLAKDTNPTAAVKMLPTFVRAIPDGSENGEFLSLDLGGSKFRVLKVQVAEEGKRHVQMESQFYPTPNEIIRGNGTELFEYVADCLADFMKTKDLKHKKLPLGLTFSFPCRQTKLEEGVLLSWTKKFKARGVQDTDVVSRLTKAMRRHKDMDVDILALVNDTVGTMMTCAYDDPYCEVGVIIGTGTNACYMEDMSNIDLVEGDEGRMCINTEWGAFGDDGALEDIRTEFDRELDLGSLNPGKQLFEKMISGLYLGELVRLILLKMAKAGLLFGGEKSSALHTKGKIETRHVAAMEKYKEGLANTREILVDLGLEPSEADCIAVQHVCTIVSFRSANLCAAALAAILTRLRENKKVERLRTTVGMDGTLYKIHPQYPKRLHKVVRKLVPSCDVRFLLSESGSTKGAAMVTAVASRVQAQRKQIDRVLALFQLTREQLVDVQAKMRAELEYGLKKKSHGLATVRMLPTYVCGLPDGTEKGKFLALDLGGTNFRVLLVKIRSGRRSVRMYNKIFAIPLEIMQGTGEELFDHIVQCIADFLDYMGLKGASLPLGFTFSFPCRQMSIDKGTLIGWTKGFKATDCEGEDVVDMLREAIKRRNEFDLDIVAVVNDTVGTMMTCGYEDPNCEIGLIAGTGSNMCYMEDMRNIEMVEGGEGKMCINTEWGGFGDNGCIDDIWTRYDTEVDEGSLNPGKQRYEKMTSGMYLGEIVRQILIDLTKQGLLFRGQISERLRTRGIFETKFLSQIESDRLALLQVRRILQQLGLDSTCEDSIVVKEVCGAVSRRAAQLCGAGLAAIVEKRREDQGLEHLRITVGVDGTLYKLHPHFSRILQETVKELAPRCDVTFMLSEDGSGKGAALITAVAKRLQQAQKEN
In words: inhibition of HKDC1 glucose phosphorylation – biochemical, W721R variant, dose response (AID 504729). Format: functional.

Test [2] deals with cAMP-dependent protein kinase catalytic subunit PRKX (Homo sapiens, UniProt P51817). In kind it is functional.
The target in test [3] is Mitogen-activated protein kinase 8 (Homo sapiens, UniProt P45983). Format: functional.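 Note: value comes from one member of a kinome-wide kinase profiling panel.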
The target of test [4] is Platelet-derived growth factor receptor beta (Homo sapiens, UniProt P09619). In kind it is functional.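 Note: value comes from a kinome panel, with PDGFRB tested as one panel member.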
For test [5], the target named is Leukocyte tyrosine kinase receptor (Homo sapiens, UniProt P29376). Kind of test: Navigating the Kinome. Panel member name: LTK. Format: functional.
Test [6] concerns the target Tyrosine-protein kinase receptor TYRO3 (Homo sapiens, UniProt Q06418). Format: functional.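 Note: TYRO3 value obtained as one member of a kinome-wide profiling panel.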
In test [7] the target is Vascular endothelial growth factor receptor 1 (Homo sapiens, UniProt P17948). In kind it is functional.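 Note: measured within a kinome-wide profiling panel, FLT1 as the panel member.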
Test [8] has as its target Death-associated protein kinase 3 (Homo sapiens, UniProt O43293). In kind it is functional.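 Note: measured as one member of a kinome-wide profiling panel.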
Test [9] concerns the target Mitogen-activated protein kinase 9 (Homo sapiens, UniProt P45984). Format: functional.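 Note: value from a kinome panel profiling assay, MAPK9 panel entry.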
In test [10] the target is 5'-AMP-activated protein kinase catalytic subunit alpha-1 (Homo sapiens, UniProt Q13131). In kind it is functional.
The target in test [11] is Intestinal-type alkaline phosphatase (Mus musculus, UniProt P24822). Kind of test: mouse intestinal alkaline phosphatase activators, dose response, biochemical, luminescence, uHTS hits (AID 488783). Format: functional.
In test [12] the target is T2, RNA-binding protein pos-1 (Caenorhabditis elegans, UniProt G5EF15).
T2 sequence (G5EF15 whole entry): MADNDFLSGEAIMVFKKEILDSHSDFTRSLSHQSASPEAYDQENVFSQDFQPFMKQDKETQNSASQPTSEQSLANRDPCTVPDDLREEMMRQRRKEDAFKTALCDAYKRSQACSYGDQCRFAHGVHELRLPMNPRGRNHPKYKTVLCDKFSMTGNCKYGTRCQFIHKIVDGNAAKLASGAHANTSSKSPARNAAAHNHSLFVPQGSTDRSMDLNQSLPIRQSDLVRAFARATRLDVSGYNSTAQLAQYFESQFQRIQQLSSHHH
Kind of test: disruptors of C. elegans POS-1 RNA interaction – biochemical, fluorescence polarization, dose response (AID 1964).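 Note: purified POS-1 fused to maltose binding protein made in E. coli; potency of compounds blocking POS-1 binding to fluorescent RNA.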

Test [13] concerns the target T3, Zinc finger protein mex-5 (Caenorhabditis elegans, UniProt Q9XUB2).
T3 sequence (Q9XUB2 whole entry): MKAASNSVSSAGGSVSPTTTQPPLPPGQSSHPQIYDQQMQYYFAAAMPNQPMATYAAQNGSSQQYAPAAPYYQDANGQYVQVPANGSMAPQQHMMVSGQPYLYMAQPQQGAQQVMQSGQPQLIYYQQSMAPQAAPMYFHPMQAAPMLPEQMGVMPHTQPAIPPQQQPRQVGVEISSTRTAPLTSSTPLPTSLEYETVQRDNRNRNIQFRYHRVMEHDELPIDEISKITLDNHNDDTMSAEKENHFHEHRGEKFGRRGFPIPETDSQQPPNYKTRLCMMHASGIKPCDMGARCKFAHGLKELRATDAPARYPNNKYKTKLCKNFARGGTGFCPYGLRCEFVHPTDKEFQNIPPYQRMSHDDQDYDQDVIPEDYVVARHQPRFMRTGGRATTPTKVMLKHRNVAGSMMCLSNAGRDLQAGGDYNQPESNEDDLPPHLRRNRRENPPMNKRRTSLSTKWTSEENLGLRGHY
Kind of test: potency of MEX-5 RNA-binding blockers – biochemical, C. elegans, fluorescence polarization, dose response (AID 1960). On the technique in general: Fluorescence polarisation rises when a labelled molecule tumbles more slowly, as on binding a larger partner.

In another test the target is T4, Caspase-3 (Homo sapiens, UniProt P42574).
T4 sequence (P42574 whole entry): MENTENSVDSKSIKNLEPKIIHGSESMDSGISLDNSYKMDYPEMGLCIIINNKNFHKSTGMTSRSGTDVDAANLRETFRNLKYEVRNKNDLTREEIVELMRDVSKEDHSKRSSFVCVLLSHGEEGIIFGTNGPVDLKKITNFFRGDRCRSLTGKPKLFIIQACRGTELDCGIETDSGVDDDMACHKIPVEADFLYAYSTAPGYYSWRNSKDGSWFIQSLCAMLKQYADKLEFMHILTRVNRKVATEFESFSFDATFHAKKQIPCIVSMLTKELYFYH
In words: Dose-response confirmation of uHTS inhibitor hits of Sentrin-Specific Protease 8 in a Caspase-3 Fluorescence assay. Format: functional.

Calls of active or inactive are those of the source.

Mitogen-activated protein kinase 9, sequence (P45984 whole entry): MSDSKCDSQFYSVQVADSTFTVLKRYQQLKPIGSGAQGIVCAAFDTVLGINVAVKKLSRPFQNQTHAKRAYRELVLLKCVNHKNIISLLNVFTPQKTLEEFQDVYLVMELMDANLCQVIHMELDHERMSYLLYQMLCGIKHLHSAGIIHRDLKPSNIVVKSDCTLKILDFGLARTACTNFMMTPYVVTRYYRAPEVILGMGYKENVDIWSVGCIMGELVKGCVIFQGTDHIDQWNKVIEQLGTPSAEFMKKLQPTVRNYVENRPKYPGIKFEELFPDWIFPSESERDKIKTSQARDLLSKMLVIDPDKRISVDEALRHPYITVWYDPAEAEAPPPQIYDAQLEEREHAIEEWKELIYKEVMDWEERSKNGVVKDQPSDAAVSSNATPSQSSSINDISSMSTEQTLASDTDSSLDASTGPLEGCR
DNA dC->dU-editing enzyme APOBEC-3A, sequence (P31941 whole entry): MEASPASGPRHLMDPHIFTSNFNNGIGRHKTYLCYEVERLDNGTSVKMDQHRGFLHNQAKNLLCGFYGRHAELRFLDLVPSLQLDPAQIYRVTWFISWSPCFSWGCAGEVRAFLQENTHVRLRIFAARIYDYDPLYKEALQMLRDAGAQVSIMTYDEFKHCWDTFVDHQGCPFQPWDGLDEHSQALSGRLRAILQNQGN
Platelet-derived growth factor receptor beta, sequence (P09619 whole entry): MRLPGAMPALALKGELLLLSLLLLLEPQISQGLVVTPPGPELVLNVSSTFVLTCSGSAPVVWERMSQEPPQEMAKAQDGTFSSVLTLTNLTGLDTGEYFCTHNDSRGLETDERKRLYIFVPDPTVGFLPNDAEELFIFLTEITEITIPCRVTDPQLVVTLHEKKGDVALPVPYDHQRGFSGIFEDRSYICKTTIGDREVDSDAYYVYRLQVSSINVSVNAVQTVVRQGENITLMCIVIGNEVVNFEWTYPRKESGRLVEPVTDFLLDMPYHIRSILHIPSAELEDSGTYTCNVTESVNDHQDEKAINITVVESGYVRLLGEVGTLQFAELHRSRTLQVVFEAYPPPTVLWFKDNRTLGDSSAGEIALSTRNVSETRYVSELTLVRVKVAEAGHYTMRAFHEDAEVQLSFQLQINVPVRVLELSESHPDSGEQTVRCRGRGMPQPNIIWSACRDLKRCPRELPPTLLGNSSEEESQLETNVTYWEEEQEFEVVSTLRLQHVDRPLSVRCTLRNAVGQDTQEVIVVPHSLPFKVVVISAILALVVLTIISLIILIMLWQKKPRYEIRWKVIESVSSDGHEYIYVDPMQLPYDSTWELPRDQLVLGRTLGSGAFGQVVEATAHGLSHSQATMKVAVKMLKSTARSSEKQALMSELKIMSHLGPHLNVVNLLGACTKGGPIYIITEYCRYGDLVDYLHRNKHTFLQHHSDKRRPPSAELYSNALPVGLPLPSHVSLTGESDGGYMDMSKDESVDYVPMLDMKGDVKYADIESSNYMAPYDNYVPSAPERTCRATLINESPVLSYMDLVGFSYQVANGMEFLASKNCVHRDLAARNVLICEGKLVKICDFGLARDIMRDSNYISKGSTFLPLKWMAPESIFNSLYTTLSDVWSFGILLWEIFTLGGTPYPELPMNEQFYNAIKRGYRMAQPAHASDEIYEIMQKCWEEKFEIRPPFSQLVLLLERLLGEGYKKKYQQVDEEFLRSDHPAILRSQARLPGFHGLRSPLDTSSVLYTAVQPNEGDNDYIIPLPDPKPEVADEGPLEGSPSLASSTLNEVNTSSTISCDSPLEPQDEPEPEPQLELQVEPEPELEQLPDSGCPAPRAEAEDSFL
Vascular endothelial growth factor receptor 1, sequence (P17948 whole entry): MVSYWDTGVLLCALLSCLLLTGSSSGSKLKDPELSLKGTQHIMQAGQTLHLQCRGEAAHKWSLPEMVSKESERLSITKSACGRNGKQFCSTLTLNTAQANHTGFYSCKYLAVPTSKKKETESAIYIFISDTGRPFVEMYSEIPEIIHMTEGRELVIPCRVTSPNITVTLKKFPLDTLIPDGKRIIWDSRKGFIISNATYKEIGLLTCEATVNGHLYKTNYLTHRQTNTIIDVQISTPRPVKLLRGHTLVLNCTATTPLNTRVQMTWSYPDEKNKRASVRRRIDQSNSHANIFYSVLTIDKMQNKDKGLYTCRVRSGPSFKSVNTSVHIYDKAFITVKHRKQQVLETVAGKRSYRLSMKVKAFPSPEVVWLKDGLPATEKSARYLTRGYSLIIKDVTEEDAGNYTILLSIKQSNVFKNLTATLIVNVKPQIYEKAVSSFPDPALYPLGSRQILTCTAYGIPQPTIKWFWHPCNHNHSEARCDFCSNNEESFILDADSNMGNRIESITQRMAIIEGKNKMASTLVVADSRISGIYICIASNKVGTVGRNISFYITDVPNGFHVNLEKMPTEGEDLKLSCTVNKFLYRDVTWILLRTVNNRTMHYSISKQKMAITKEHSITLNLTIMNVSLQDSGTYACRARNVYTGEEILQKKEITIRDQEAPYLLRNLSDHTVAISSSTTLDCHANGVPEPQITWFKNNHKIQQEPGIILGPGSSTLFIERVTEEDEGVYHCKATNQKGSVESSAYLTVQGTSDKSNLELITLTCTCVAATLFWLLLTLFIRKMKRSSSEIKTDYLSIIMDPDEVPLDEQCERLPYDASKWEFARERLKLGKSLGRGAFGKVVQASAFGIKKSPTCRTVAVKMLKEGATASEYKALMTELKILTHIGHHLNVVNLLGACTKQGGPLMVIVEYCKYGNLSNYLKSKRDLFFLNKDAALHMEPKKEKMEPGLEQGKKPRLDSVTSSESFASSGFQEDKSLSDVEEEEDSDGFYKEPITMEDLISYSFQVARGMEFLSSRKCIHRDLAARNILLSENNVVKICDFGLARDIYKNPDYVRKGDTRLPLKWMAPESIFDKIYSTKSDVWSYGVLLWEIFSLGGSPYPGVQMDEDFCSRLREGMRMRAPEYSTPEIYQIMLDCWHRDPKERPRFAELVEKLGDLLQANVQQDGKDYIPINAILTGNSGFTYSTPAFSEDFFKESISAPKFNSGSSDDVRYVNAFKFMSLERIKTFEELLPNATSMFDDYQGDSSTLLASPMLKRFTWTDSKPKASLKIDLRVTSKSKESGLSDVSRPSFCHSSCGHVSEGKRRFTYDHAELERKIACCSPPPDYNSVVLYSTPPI
Death-associated protein kinase 3, sequence (O43293 whole entry): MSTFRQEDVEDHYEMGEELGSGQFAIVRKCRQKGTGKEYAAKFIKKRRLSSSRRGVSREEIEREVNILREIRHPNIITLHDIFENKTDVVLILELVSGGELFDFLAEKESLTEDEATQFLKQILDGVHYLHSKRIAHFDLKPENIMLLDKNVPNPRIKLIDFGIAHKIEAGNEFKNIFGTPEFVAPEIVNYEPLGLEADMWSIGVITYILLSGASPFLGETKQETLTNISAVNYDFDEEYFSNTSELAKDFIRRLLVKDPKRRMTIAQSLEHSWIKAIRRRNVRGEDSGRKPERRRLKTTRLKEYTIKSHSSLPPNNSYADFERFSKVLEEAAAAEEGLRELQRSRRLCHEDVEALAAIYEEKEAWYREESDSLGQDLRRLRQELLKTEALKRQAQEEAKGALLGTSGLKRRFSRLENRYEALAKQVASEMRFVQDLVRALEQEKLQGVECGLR
5'-AMP-activated protein kinase catalytic subunit alpha-1, sequence (Q13131 whole entry): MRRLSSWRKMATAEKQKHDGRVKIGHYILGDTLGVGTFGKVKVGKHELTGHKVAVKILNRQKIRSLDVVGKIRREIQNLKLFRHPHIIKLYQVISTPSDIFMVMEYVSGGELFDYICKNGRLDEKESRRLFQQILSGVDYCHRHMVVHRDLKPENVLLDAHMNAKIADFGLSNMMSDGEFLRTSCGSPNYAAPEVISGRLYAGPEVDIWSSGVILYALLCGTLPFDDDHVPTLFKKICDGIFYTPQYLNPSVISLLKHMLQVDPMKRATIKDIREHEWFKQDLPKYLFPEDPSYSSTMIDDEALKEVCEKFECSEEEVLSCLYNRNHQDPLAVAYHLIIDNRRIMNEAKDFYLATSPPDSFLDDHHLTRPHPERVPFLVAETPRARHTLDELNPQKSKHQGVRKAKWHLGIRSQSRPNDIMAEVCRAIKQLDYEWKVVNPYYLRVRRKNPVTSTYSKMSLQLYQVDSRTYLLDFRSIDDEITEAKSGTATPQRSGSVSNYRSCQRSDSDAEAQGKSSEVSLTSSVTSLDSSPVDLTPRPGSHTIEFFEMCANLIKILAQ
cAMP-dependent protein kinase catalytic subunit PRKX, sequence (P51817 whole entry): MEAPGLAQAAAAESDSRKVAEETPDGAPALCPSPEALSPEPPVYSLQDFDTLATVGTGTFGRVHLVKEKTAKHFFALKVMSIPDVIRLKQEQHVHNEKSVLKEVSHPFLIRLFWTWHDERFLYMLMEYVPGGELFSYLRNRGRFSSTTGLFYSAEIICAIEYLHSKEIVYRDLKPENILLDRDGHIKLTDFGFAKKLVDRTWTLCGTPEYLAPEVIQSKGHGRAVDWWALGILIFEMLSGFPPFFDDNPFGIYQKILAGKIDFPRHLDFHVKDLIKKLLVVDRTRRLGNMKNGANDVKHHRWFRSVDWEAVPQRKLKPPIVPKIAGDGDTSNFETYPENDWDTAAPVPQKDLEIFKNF
Intestinal-type alkaline phosphatase, sequence (P24822 whole entry): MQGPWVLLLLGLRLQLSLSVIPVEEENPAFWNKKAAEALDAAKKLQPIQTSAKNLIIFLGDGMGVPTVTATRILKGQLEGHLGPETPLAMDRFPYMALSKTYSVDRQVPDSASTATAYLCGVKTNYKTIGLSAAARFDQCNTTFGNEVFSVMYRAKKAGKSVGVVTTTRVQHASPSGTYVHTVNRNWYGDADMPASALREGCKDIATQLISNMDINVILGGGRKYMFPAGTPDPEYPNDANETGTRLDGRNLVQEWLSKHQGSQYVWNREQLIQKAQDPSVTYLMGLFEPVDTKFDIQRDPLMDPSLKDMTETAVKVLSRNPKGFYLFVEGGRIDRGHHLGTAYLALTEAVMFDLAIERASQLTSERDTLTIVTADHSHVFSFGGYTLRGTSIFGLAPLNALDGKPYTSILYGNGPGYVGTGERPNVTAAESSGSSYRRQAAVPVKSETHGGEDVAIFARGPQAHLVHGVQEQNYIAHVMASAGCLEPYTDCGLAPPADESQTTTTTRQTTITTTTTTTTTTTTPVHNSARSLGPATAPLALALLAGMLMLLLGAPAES

A word on the IC50: it is the concentration that gives 50% inhibition. Consider `CC(=O)N(C1=C(Cl)C(=O)c2ccccc2C1=O)c1ccc(C(=O)O)cc1`, for which the IC50 was > 100 µM (inactive) in test [1] and 6.23 µM (active) at Hexokinase HKDC1.

What is called Ki is the dissociation constant of the complex between target and ligand, obtained from inhibition or displacement. For `Cc1ccc(-c2cc3nc(Br)cnc3[nH]2)cc1`, the Ki was > 3.16 µM (inactive) in test [2]; > 5.01 µM (inactive) in [3]; > 2 µM (inactive) in [4]; > 2.51 µM (inactive) in test [5]; > 3.16 µM (inactive) in [6]; > 3.98 µM (inactive) in [7]. For the same molecule, the Ki in test [8] was > 5.01 µM (inactive); in test [9] it was > 3.98 µM (inactive); in test [10], 3.16 µM (active).

As a reminder, the EC50 is the concentration giving half of the maximal effect. As to `O=C1C=C(O)c2c(O)cc(O)c(O)c2C1=O`, the EC50 in test [11] was 9.93 µM (active); in [12], 1.07 µM (inconclusive); in test [13], 0.899 µM (active).

`CC1(C)C=C2C(=NN(c3ccccc3)C(N)=C2C#N)CO1`: the half-inhibitory concentration (IC50) on Caspase-3 is 1.09 µM (active).

Source of the values: ChEMBL document CHEMBL1201862, “PubChem BioAssay data set” (2004).
